[C(1O2)] = modified PNA monomer acting as cytosine, C(pOq) type, 1O2; [A(5)] = modified PNA monomer acting as adenine, A(p) type, p=5; [A(6)] = modified PNA monomer acting as adenine, A(p) type, p=6; [G(5)] = modified PNA monomer acting as guanine, G(p) type, p=5; {Fethoc} = N-terminal Fethoc cap; {NH2} = C-terminal amide
Key:
mdx mice [1] = assay: Unscheduled death, sacrifice or lymphoma in chronically treated mdx mice; format: in vivo, mouse; details: DMD-ASO 1 50 pmole/Kg, DMD-ASO 2 or DMD-ASO 6 10 pmole/Kg, subcutaneous 2× per week, 66 weeks
From the text: [Grouping & ASO Treatment] Male mdx mice (7 weeks old) were randomly assigned to 4 groups of 0 (mdx negative control), 10, 50, and 200 pmole/Kg “DMD-ASO 1” based on individual grip strength scores by grip test. (N=12 per group) A satellite group of 12 male C57BL/6 mice (7 weeks old) was included in this study as the wild type negative control group for the full-length dystrophin expression level.
The 50 and 200 pmole/Kg group subcutaneously received “DMD-ASO 1” as dissolved in PBS, 2× per week until the final sacrifice in Week 43. In the meantime, the 10 pmole/Kg group subcutaneously received “DMD-ASO 1” initially 2× per week during Week 0 to 8, and 3× per week afterwards to increase the ASO exposure.
[Miscellaneous Findings] There were three cases of unscheduled sacrifice or death (Weeks 26, 39 and 43) in the mdx negative control group due to a large mass of muscular lymphoma developed most likely by chronic muscular inflammation.
“DMD-ASO 1”, “DMD-ASO 2” and “DMD-ASO 6” were evaluated for their physiological effects in male mdx mice by long term subcutaneous administration. In this evaluation the animals were not subjected to physical tests requiring muscular stress in order to keep the transcription of the dystrophin gene undisturbed by excessive muscular stimulation.
[Animals & Grouping] Male mdx mice (6 weeks old) were randomly assigned to 4 groups of the mdx negative control (no ASO treatment), “DMD-ASO 1” 50 pmole/Kg, “DMD-ASO 2” […], and “DMD-ASO 6” […] based on the body weight. (N=12-13 per group) 12 male C57BL/6 mice (6 weeks old) were adopted as the wild type (WT) negative control group.
[Injection Solutions & ASO Treatment] Aqueous mother stock solutions of the ASOs were serially diluted in PBS to prepare the injection solutions of 25 nM “DMD-ASO 1” for 50 pmole/Kg “DMD-ASO 1”, 5 nM “DMD-ASO 2” for “DMD-ASO 2” 10 pmole/Kg, and 5 nM “DMD-ASO 6” for “DMD-ASO 6” 10 pmole/Kg. The animals were subcutaneously administered with the injection solutions at 2 mL/Kg, 2× per week.

mdx mice [2] = assay: Walking distance on tread mill in mdx mice; format: in vivo, mouse; details: first 30 weeks, injection solutions without Tween 80
Method: “DMD-ASO 2” was chronically administered to mdx mice to evaluate its ability to improve muscle function by the walking distance on tread mill, and to inhibit the muscle degradation by the serum levels of creatine kinase (CK) and myoglobin.
[Animals & Grouping] Male mdx mice (6 weeks old) were randomly assigned to three groups of the mdx negative control (no ASO treatment), “DMD-ASO 2” 10 pmole/Kg, and “DMD-ASO 2” […] based on the body weight. (N=16 per group) 12 male C57BL/6 mice (6 weeks old) were adopted as the wild type (WT) negative control group.
[Injection Solutions & ASO Treatment] An aqueous mother stock solution of “DMD-ASO 2” was diluted either in PBS or in PBS supplemented with 0.1% Tween 80 to prepare injection solutions of […] “DMD-ASO 2” for 10 pmole/Kg and 30 pmole/Kg “DMD-ASO 2”, respectively. Supplementation of PBS injection solution with 0.1% Tween 80 was considered to be necessary to prevent the ASO molecules from sticking to plastic injection vials, pipette tips, and syringes.
[Walking Distance on Tread Mill] During the first 30 weeks post grouping, the animals were administered with the injection solutions without Tween 80 2× per week at 2 mL/Kg. Starting from Week 7, the animals were subjected to walking on a tread mill (Model #LE8710, PanLab) on a weekly basis. […]

[3] = test system: serum creatine kinase (CK); assay: Serum creatine kinase level in mdx mice; format: in vivo; details: Week 48
Method: (§1) [Terminal Sacrifice] In Week 48, the animals were subjected to terminal sacrifice for blood sampling. The blood samples were analyzed for the serum level of CK (Creatine Kinase Activity Assay Kit, Cat. Number ab155901, Abcam) and myoglobin (Myoglobin ELISA Kit, Cat. Number ab210965, Abcam) to assess the degree of muscle degradation according to the manufacturer's instructions. Muscle tissues were analyzed by western blot for the full-length dystrophin.
(§2) [Terminal Sacrifice] All the survived animals were sacrificed for blood sampling in Week 66 post the grouping. The blood samples were subjected to ELISA assays for serum creatine kinase (CK) and serum myoglobin as described in “DMD Example 6”.

serum myoglobin = assay: Serum myoglobin level in mdx mice; format: in vivo
Method: as §1, §2

full-length dystrophin = assay: Dystrophin western blot in triceps of mdx mice; format: in vivo; details: Week 48
Method: [Full-length Dystrophin Expression in Triceps by Western Blot] Following homogenization at liquid nitrogen temperature, muscle (triceps) samples were subjected to lysis in RIPA buffer supplemented with 1% SDS. The protein concentration in each lysate was quantified by BCA assay against the BSA standard. […] of protein of each lysate was subjected to electrophoretic separation on an 8% PAGE gel. Then the PVDF membrane was probed with a C-terminal targeting dystrophin antibody (Cat. Number ab154168, Abcam).

10-mer complementary DNA = assay: Tm between PNA derivatives and 10-mer complementary DNA (N- or C-terminal); format: binding; details: uncorrected
Summary of the method: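 Tm read by UV at 260 nm for duplexes formed by annealing (90 °C for a minute, slow cooling to ambient) of equimolar 4 μM PNA and complementary 10-mer DNA targeting N- or C-terminal, in 10 mM sodium phosphate, 100 mM NaCl, pH 7.16.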

rat SNAP25 pre-mRNA = assay: SNAP25 nested PCR for exon skipping in PC12 cells; format: cell-based
Method: PC12 cells were maintained in RPMI 1640 medium supplemented with 5% FBS, 10% horse serum, 1% streptomycin/penicillin, 1% L-glutamine, and 1% sodium pyruvate under 5% CO2 atmosphere at 37° C. Cells grown in 60 mm culture dish containing 5 mL culture medium were treated with “SNAP-ASO 3” at 0 (negative control), 10, 100 or 1,000 zM. [RNA Extraction & cDNA Synthesis by One-step PCR] Following an incubation with “SNAP-ASO 3” for 42 hours, the cells were treated with 100 μg/mL cycloheximide for another 6 hours in order to freeze the ribosomal translation. Then total RNA was extracted using “Universal RNA Extraction Kit” (Cat. Number 9767, Takara) according to the manufacturer's instructions. […] NO: 126); and SNAP-exon 14_reverse: (5'→3') […] [Nested PCR Amplification] […] NO: 128); SNAP-exon 14n_reverse: (5'→3') […] [Identification of Exon Skipping Products] The PCR products were subjected to electrophoretic separation on a 2% agarose gel. The bands of target size were collected and analyzed by Sanger Sequencing.

full-length SNAP25 mRNA = assay: SNAP25 nested qPCR in PC12 cells; format: cell-based, rat
Method: [Cell Culture & ASO Treatment] PC12 cells grown in 60 mm culture dish containing 5 mL culture medium were treated with “SNAP-ASO 3” at 0 (negative control), 10, 100 or 1,000 zM. (2 culture dishes per ASO concentration) [RNA Extraction & cDNA Synthesis by One-step RT-PCR] Following an incubation with “SNAP-ASO 3” for 42 hours, the cells were treated 100 μg/mL cycloheximide for another 6 hours to freeze the ribosomal translation. Then total RNA was extracted from cells using “Universal RNA Extraction Kit” (Cat. Number 9767, Takara) according to the manufacturer's instructions. […] NO: 130); and SNAP-exon 14_reverse: (5'→3') […] [Nested qPCR Amplification] […] NO: 132); and SNAP-exon 8q_reverse: (5'→3') […] The qPCR reaction was followed with a Taqman probe of [(5'→3') 5,6-[…] NO: 134)] targeting the junction of exon 7 and exon 8 in order to quantify the full-length SNAP25 mRNA.

[4] = test system: full-length human SNAP25 mRNA; assay: SNAP25 qPCR in SiMa cells; format: cell-based; details: 100 aM
Method: [Cell Culture & ASO Treatment] SiMa cells were grown in 60 mm culture dish containing 5 mL culture medium, and were treated with “SNAP-ASO 3” at 0 zM (negative control), 1 zM, 10 zM, 100 zM or 1 aM, 10 aM, or 100 aM. (2 culture dishes per ASO concentration) [RNA Extraction & cDNA Synthesis] Total RNA was extracted from cells using “RNeasy Mini Kit” (Cat. Number 74106, Qiagen) according to the manufacturer's instructions. […] [qPCR Amplification] The PCR reactions were monitored with a Taqman probe [(5' 3') 56-[…] NO: 137)] targeting the junction of exon 6 and exon 7 against a set of exon-specific primers [SNAP-exon 6_forward: (5'→3') […] NO: 138); and SNAP-exon 8_reverse(2): (5'→3') […] NO: 139)].

Row | Substance | premature deaths (unscheduled death or sacrifice) (mdx mice [1]) | walking distance on tread mill compared to the mdx negative control group (mdx mice [2]) | serum CK level smaller than the mdx negative control group by ([3]; 10 pmole/Kg) [%] | serum CK level smaller than the mdx negative control group by ([3]; 30 pmole/Kg) [%] | serum myoglobin level smaller than the mdx negative control group by (serum myoglobin; 10 pmole/Kg, Week 48) [%] | serum myoglobin level smaller than the mdx negative control group by (serum myoglobin; 30 pmole/Kg, Week 48) [%] | serum myoglobin level smaller than the mdx negative control group by (serum myoglobin; DMD-ASO 1 50 pmole/Kg, DMD-ASO 2 or DMD-ASO 6 10 pmole/Kg, 2× per week, Week 66) [%] | 130K dystrophin band intensity (western blot, triceps) (full-length dystrophin; 10 pmole/Kg) | 117K dystrophin band (western blot, triceps) (full-length dystrophin; 10 and 30 pmole/Kg) | Tm Value, 10-mer DNA against C-Terminal (10-mer complementary DNA) [°C] | Tm Value, 10-mer DNA against N-Terminal (10-mer complementary DNA) [°C] | intensity of the full-length SNAP25 mRNA by nested PCR (rat SNAP25 pre-mRNA; PC12 cells, 10, 100 or 1,000 zM) | SNAP25 exon skipping by nested PCR (rat SNAP25 pre-mRNA; PC12 cells, 10 zM, 42 hours then cycloheximide 6 hours) | decrease of full-length SNAP25 mRNA level (qPCR) (full-length SNAP25 mRNA; PC12 cells, 10 zM) [%] | decrease of full-length SNAP25 mRNA level (qPCR) (full-length SNAP25 mRNA; PC12 cells, 100 zM) [%] | decrease of full-length SNAP25 mRNA level (qPCR) (full-length SNAP25 mRNA; PC12 cells, 1,000 zM) | inhibition of full-length human SNAP25 mRNA level (qPCR) [4] [%]
1 | Fethoc-TTG(6)CA(5)G-AG(6)C-C(1O2)TC-AA(5)A-A(5)T-NH2 (antisense TTGCAGAGCCTCAAAAT; Fethoc N-cap, C-terminal amide, chemistry not fully specified) [DMD-ASO 2] | one death in Week 56 and another in Week 62 | failed to show any significant improvements | 58 | 38 | 67 | 58 | 49 | considerably stronger | markedly stronger | – | – | – | – | – | – | – | –
2 | Fethoc-TG(5)T-TA(6)C-C(1O2)CT-GG(5)G-A(5)T-NH2 (antisense TGTTACCCTGGGAT; all peptide nucleic acid (PNA), [G(5)] at 2, 11, [A(6)] at 5, [C(1O2)] at 7, [A(5)] at 13, 5' {Fethoc}, 3' {NH2}; peptide nucleic acid written N to C) [SNAP-ASO 3] | – | – | – | – | – | – | – | – | – | 88.7 | 77.3 | decreased most in the cells treated with 10 zM | yielded a faint PCR band assignable to the skipping of exons 5-7 | ~50 | 20 | slightly higher than the level of the cells without ASO treatment | 40
